Source: article doi:10.1101/2025.09.28.679030v1 (biorxiv, 2025)

Biological target: IGP1 (IGP1/CORK1) ectodomain (Arabidopsis thaliana, UniProt F4I3K3)
Assay: ITC
Assay type: binding
Settings: purified ectodomain; ligand in LRR domain pocket, three subsites; N=1

OC[C@H]1O[C@@H](O[C@H]2[C@H](O)[C@@H](O)[C@H](O[C@H]3[C@H](O)[C@@H](O)C(O)O[C@@H]3CO)O[C@@H]2CO)[C@H](O)[C@@H](O)[C@@H]1O (stereo partly shown) [CEL3, cellotriose]
Kd: ~1000 nM
